The values that follow come from patent US20220202712A1, “SELF-EMULSIFYING DRUG DELIVERY SYSTEMS FOR DELIVERY OF LIPOPHILIC COMPOUNDS” (Yissum Research Development Company of the Hebrew …, priority 2019, published 2022).

Where two headings read alike, the source gives them in different places.

For data set [1] the following is noted: sublingual drops, cited from earlier work.
The nature of data set [2]: Pharmacokinetic studies for CBD- and THC-loaded SEDDS based on tributyrin. To be noted: oral, 0.125 mg THC/2.5 mg CBD (CBD:THC 20:1). Here is the method: The PK studies were carried out on rats. Three animals were used in each time point. At each test point, animals were sacrificed and blood (5-6 ml) withdrawn from the heart and collected in heparinized tubes.
Each rat was orally administered with 1 mil of the test formulation. Blood samples were withdrawn at different time points: 0, 0.5, 1, 2, 4, 6, 10 and 24 hours. The blood samples were centrifuged at 4000 rpm and the plasma was separated and collected in clean polyethylene tubes and kept at −80° C. until analysis using LC-MS/MS.
TB1 liquid SEDDS formulations were tested: 200 parts tributyrin, 350 parts Cremophor RH40, 350 parts PEG400, 350 parts PG.
The HPLC system consisted of a Dionex/Thermo Scientific UltiMate 3000 UHPLC systems fitted with a 100 μL sample loop, Dionex™ UltiMate™ 3000 Rapid Separation Diode Array Detector, and integration software Chromeleon Chromatography Data System (CDS).
Chromatographic separation was performed with guard column Luna® 5 μm C18(2) 100 Å, LC Column 150×4.6 mm, using an isocratic mobile phase of water (0.1% formic acid): acetonitrile (0.1% formic acid) 10:90 at a flow rate of 1 mL/min for 10 in minisocratic condition. The column temperature was 40° C. and the injection volume was 100 μL.
Dual ion electrospray ionization (DUIS) in positive was used for ionization of the analytes on the ISQ™ EC. […]

As a reminder, the Cmax is the peak of the concentration-time curve. The term Tmax denotes the time at which the peak concentration occurs. Turning to `C=C(C)[C@@H]1CCC(C)=C[C@H]1c1c(O)cc(CCCCC)cc1O` [CBD, cannabidiol], in data set [1] (CBD dose 10 mg), the Cmax is given as 2.05 ng/mL and the Tmax was 2.17 h. Moreover, in data set [1] (CBD dose 20 mg), the Cmax is 2.58 ng/mL and the Tmax is recorded as 1.67 h.
In the case of `CCCCCc1cc(O)c2c(c1)OC(C)(C)[C@@H]1CCC(C)=C[C@@H]21` [THC, tetrahydrocannabinol], the Tmax in data set [2] (Table 20, THC, semi-solid SEDDS) is 2.00 h. Further, the C1/F_obs in data set [2] (Table 21-2, THC in tributyrin as a carrier (reference)) was determined as 66.835 mL/min/kg.
